This note sets out measurements from publication PMC4727756 (Journal of analytical & bioanalytical techniques, 2015).

SMILES strings stand for the structures.

A short description of data set [1]: stability of stock and working solutions (LC-MS/MS). Format: physicochemical. The settings on record: stored at 4°C for at least 6 months. The method, then:
The stabilities of stock and working solutions for both analyte and internal standard were also evaluated. Stock solutions of analyte and IS were stored at −20°C for 9 months.

A short description of another data set: in vitro. It is filed as in vitro ADME. The method, then:
Short-term stabilities were also determined for post-preparation QC standards stored at room temperature for 10 hours. The QC results obtained after storage were compared with spiked concentration values by determining the percentage ratios of experimental values divided by spiked values.

Turning to `Cc1ccc(C)c(COc2cc(NC(=O)C3CCCCC3)ccc2N(C)S(C)(=O)=O)c1` [JCC76, N-(3-(2,5-dimethylbenzyloxy)-4-(methylmethylsulfonamido)phenyl)cyclohexanecaboxamide, reference compound], the “stability of working solutions” value in data set [1] (7.5 ng/mL IS) is 115.60%.

The compound `Cc1ccc(C)c(COc2cc(NC(=O)c3cc(C(F)(F)F)cc(C(F)(F)F)c3)ccc2N(C)S(C)(=O)=O)c1` [BMCL26] displayed a recovery at 8 h, 1.25 ng/mL in “in vitro” (rat plasma QC samples, rat plasma, bench top (8 hr) at room temp, 1.25 ng/ml) of 103%. Moreover, in “in vitro” (rat plasma QC samples, rat plasma, bench top (8 hr) at room temp, 80.00 ng/ml), the recovery at 8 h, 80 ng/mL was found to be 103%. Moreover, the recovery at 3 days, 1.25 ng/mL in the data set “in vitro” (rat plasma QC samples, rat plasma, freeze thaw (3 cycles), 1.25 ng/ml) amounted to 98.1%. The compound also yielded a recovery at 3 days, 80 ng/mL in “in vitro” (rat plasma QC samples, rat plasma, freeze thaw (3 cycles), 80.00 ng/ml) of 105%. In the data set “in vitro” (rat, post-extraction (post-preparation) rat plasma QC samples, post extraction (10 hr) at room temp, 1.25 ng/ml), this compound showed a recovery at 10 h, 1.25 ng/mL of 102%. The same compound returned a recovery at 10 h, 80 ng/mL in “in vitro” (rat, post-extraction (post-preparation) rat plasma QC samples, post extraction (10 hr) at room temp, 80.00 ng/ml) of 108%. Further, in data set [1] (two QC standards (1.25 and 80 ng/mL)), the “stability of working solutions” value is recorded as 99.60–105.00%.
